Like-named read-outs stand apart in the source and are kept apart here.
Key:
[1] = system: late components of human complement (C3-C9); assay: Test Code 035 (C3-C9 inhibitor), lysis of EAC 142; assay type: biochemical; settings: serial twofold dilution assay; higher well number indicates higher activity
Procedure: (§1) Percent inhibition is calculated by comparison with simultaneous controls.
(§2) *Tests identified by code herein. For a discussion of the tests, see
(§3) **Activity in wells, a serial dilution assay; higher well number indicate

[2] = biological target: activated human C1 (Homo sapiens, UniProt P09871); assay: Test Code 026 (C1 inhibitor); assay type: biochemical; settings: serial twofold dilution assay; higher well number indicates higher activity
Procedure: as §1, §2, §3

[3] = system: complement activity of sera; assay: Guinea Pig Intraperitoneal Test (GPIP); assay type: in vivo; settings: 200 mg/kg i.p.; for inhibition at 200 mg/kg: Cavia porcellus, ip
Procedure: as §1

[4] = system: complement system; settings: Br. J. Exp. Pathol. 33: 327 (1952); cited from earlier work
[5] = system: hereditary angioneurotic edema; settings: known complement inhibitors, literature reports; cited from earlier work
[6] = system: total hemolytic complement activity; settings: both in vitro and in vivo; cited from earlier work

For `O=C(Nc1ccc(S[C@@H]2O[C@H](COS(=O)(=O)O)[C@@H](OS(=O)(=O)O)[C@H](OS(=O)(=O)O)[C@H]2OS(=O)(=O)O)cc1)c1cc(C(=O)Nc2ccc(S[C@@H]3O[C@H](COS(=O)(=O)O)[C@@H](OS(=O)(=O)O)[C@H](OS(=O)(=O)O)[C@H]3OS(=O)(=O)O)cc2)cc(C(=O)Nc2ccc(S[C@@H]3O[C@H](COS(=O)(=O)O)[C@@H](OS(=O)(=O)O)[C@H](OS(=O)(=O)O)[C@H]3OS(=O)(=O)O)cc2)c1.[Na].[Na].[Na].[Na].[Na].[Na].[Na].[Na].[Na].[Na].[Na].[Na]` [Dodecasodium N,N',N"-tris[4-[(2,3,4,6-tetra-O-sulfo-β-D-glucopyranosyl)thio]phenyl]-1,3,5-benzenetricarboxamide], the “In vitro Activity C-Late 035 Wells” value [1] was 1 Wells and the “In vitro Activity C-1 026 Wells” value [2] was 4 Wells.
In the case of `O=S(=O)(O)OC[C@H]1O[C@@H](Sc2ccc(NS(=O)(=O)c3cc(S(=O)(=O)Nc4ccc(S[C@@H]5O[C@H](COS(=O)(=O)O)[C@@H](OS(=O)(=O)O)[C@H](OS(=O)(=O)O)[C@H]5OS(=O)(=O)O)cc4)cc(S(=O)(=O)Nc4ccc(S[C@@H]5O[C@H](COS(=O)(=O)O)[C@@H](OS(=O)(=O)O)[C@H](OS(=O)(=O)O)[C@H]5OS(=O)(=O)O)cc4)c3)cc2)[C@H](OS(=O)(=O)O)[C@@H](OS(=O)(=O)O)[C@@H]1OS(=O)(=O)O.[Na].[Na].[Na].[Na].[Na].[Na].[Na].[Na].[Na].[Na].[Na].[Na]` [Dodecasodium N,N',N"-tris[4-[(2,3,4,6-tetra-O-sulfo-β-D-glucopyranosyl)thio]phenyl]-1,3,5-benzenetrisulfonamide], the “In vitro Activity C-Late 035 Wells” value [1] was 2 Wells, the “In vivo Activity (Guinea Pig % Inhibition) Intraperitoneal, 2 hours” value ([3]; serum complement 2 hours after injection) was 93% and the “In vivo Activity (Guinea Pig % Inhibition) Intraperitoneal, 6 hours” value ([3]; serum complement 6 hours after injection) was 76%. The inhibition at 200 mg/kg ([3]; 2 h, serum complement 2 hours after injection, read-out: In vivo Activity (Guinea Pig % Inhibition) Intraperitoneal, 2 hours) was 91%, the inhibition at 200 mg/kg ([3]; 6 h, serum complement 6 hours after injection, read-out: In vivo Activity (Guinea Pig % Inhibition) Intraperitoneal, 6 hours) was 91% and the inhibition at 200 mg/kg ([3]; 24 h, serum complement 24 hours after injection, read-out: In vivo Activity (Guinea Pig % Inhibition) Intraperitoneal, 24 hours) was 87%. The “In vitro Activity C-1 026 Wells” value [2] was 10 Wells.
In the case of `O=S(=O)(O)OC[C@H]1O[C@@H](Sc2ccc(NS(=O)(=O)c3ccc4c(S(=O)(=O)Nc5ccc(S[C@@H]6O[C@H](COS(=O)(=O)O)[C@@H](OS(=O)(=O)O)[C@H](OS(=O)(=O)O)[C@H]6OS(=O)(=O)O)cc5)cc(S(=O)(=O)Nc5ccc(S[C@@H]6O[C@H](COS(=O)(=O)O)[C@@H](OS(=O)(=O)O)[C@H](OS(=O)(=O)O)[C@H]6OS(=O)(=O)O)cc5)cc4c3)cc2)[C@H](OS(=O)(=O)O)[C@@H](OS(=O)(=O)O)[C@@H]1OS(=O)(=O)O` [Dodecasodium N,N',N"-tris[4-[(2,3,4,6-tetra-O-sulfo-β-D-glucopyranosyl)thio]phenyl]-1,3,6-naphthylenetrisulfonamide], the “In vitro Activity C-Late 035 Wells” value [1] was 1 Wells and the “In vitro Activity C-1 026 Wells” value [2] was 5 Wells.
With `O=C(Nc1ccc(S[C@@H]2O[C@H](COS(=O)(=O)O)[C@@H](OS(=O)(=O)O)[C@H](OS(=O)(=O)O)[C@H]2OS(=O)(=O)O)cc1)c1ccc(C(=O)Nc2ccc(S[C@@H]3O[C@H](COS(=O)(=O)O)[C@@H](OS(=O)(=O)O)[C@H](OS(=O)(=O)O)[C@H]3OS(=O)(=O)O)cc2)cc1.[Na].[Na].[Na].[Na].[Na].[Na].[Na].[Na]` [Octasodium N,N'-bis[4-[(2,3,4,6-tetra-O-sulfo-β-D-glucopyranosyl)thio]phenyl]-1,4-benzenedicarboxamide] the “In vitro Activity C-Late 035 Wells” value [1] was 1 Wells and the “In vitro Activity C-1 026 Wells” value [2] was 4 Wells.
For `Nc1ccc2cc(S(=O)(=O)[O-])cc(O)c2c1N=Nc1ccc(NC(=O)Nc2ccc(N=Nc3c(N)ccc4cc(S(=O)(=O)[O-])cc(O)c34)c(S(=O)(=O)[O-])c2)cc1S(=O)(=O)[O-].[Na+].[Na+].[Na+].[Na+]` [chlorazol fast pink, 3,3'-ureylenebis[6-(2-amino-8-hydroxy-6-sulfo-1-naphthylazo)benzenesulfonic acid], tetrasodium salt], the anticomplementary effect [4] is given as “anticomplementary effect”.
For `NCCCCCC(=O)O` [epsilon-aminocaproic acid], the “success in the treatment of hereditary angioneurotic edema” value [5] is given as “used with success”.
In the case of `NC[C@H]1CC[C@H](C(=O)O)CC1` [tranexamic acid], the “success in the treatment of hereditary angioneurotic edema” value [5] is listed as “used with success”.
In the case of heparin, the anticomplementary effect [4] is listed as “anticomplementary effect”.
In the case of pentosan-polysulfoester, the “anticomplementary activity on human serum, judged by reduction in total hemolytic complement activity” value [6] is given as “anticomplementary activity”.

Source: patent publication US4431638A, “Poly-cation salts of bis(or tris)[4-0-monohexose-thio]-arylene sulfate derivatives” (American Cyanamid Company, priority 1982, dated 1984)
